# System: patients after acute myocardial infarction
# Test: Life quality, Seattle Angina Questionnaire (SAQ), same clinical trial
# Type: in vivo, human
# Conditions: FAS
# Excerpt: 3508 patients who were in accordance with the diagnostic standards of AMI for 28 days to 2 years and differentiated as Qi deficiency and blood stagnation syndrome by TCM were studied. 0.5 g Chinese medicine composition prepared by the method of EXAMPLE 1 (Coded as QSYQ) was administrated half an hour after meal, 3 times per day.
# There were 19 questions in the Seattle angina questionnaire (SAQ), including 5 parts: physical limitation (PL), anginal stability (AS), anginal frequency (AF), treatment satisfaction (TS) and disease perception (DP). After being given necessary explanation by doctors, the questions were answered independently by patients.
# They included the overall survival time, angina pectoris score, TCM symptom score and life quality score, where angina pectoris score, TCM symptom score and life quality score were evaluated at randomization, in 1st, 3rd, 6th, 9th, 12th month after treatment and 18th month after follow-up.
# All evaluation results of SAQ were described during the period of observation, and Wilcoxon rank sum test was used for inter-group comparison.
# The evaluation results in the SAQ were depicted in different observations, and inter-group comparison was tested by Wilcoxon Rank-sum test.
smiles,measurement,setting,value
"CC(=O)Oc1ccccc1C(=O)O [Control group, aspirine]","SAQ 5th question, ≧4 times per day: % of patients",12 months after treatment,(0.80%)
same,"SAQ 5th question, ≧4 times per day: number of patients",12 months after treatment,14
same,"SAQ 6th question, Dissatisfied: % of patients",12 months after treatment,(0.29%)
same,"SAQ 6th question, Dissatisfied: number of patients",12 months after treatment,5
same,"SAQ 6th question, Highly satisfied: % of patients",12 months after treatment,(25.86%)
same,"SAQ 6th question, Highly satisfied: number of patients",12 months after treatment,451
same,"SAQ 6th question, Mostly dissatisfied: % of patients",12 months after treatment,(1.55%)
same,"SAQ 6th question, Mostly dissatisfied: number of patients",12 months after treatment,27
same,"SAQ 6th question, Mostly satisfied: % of patients",12 months after treatment,(60.61%)
same,"SAQ 6th question, Mostly satisfied: number of patients",12 months after treatment,1057
same,"SAQ 6th question, Partly satisfied: % of patients",12 months after treatment,(11.70%)
same,"SAQ 6th question, Partly satisfied: number of patients",12 months after treatment,204
same,"SAQ 7th question, Dissatisfied: % of patients",12 months after treatment,(0.11%)
same,"SAQ 7th question, Dissatisfied: number of patients",12 months after treatment,2
same,"SAQ 7th question, Highly satisfied: % of patients",12 months after treatment,(29.56%)
same,"SAQ 7th question, Highly satisfied: number of patients",12 months after treatment,515
same,"SAQ 7th question, Mostly dissatisfied: % of patients",12 months after treatment,(0.75%)
same,"SAQ 7th question, Mostly dissatisfied: number of patients",12 months after treatment,13
same,"SAQ 7th question, Mostly satisfied: % of patients",12 months after treatment,(59.82%)
same,"SAQ 7th question, Mostly satisfied: number of patients",12 months after treatment,1042
same,"SAQ 7th question, Partly satisfied: % of patients",12 months after treatment,(9.76%)
same,"SAQ 7th question, Partly satisfied: number of patients",12 months after treatment,170
same,"SAQ Question 1-1 Mildly limited, number of patients",12 months after treatment,15
same,"SAQ Question 1-1 Mildly limited, percent of patients",12 months after treatment,(0.86%)
same,"SAQ Question 1-1 Moderately limited, number of patients",12 months after treatment,4
same,"SAQ Question 1-1 Moderately limited, percent of patients",12 months after treatment,(0.23%)
same,"SAQ Question 1-1 Not limited, number of patients",12 months after treatment,1659
same,"SAQ Question 1-1 Not limited, percent of patients",12 months after treatment,(95.13%)
same,"SAQ Question 1-1 Other reasons, number of patients",12 months after treatment,4
same,"SAQ Question 1-1 Other reasons, percent of patients",12 months after treatment,(0.23%)
same,"SAQ Question 1-1 Severely limited, number of patients",12 months after treatment,1
same,"SAQ Question 1-1 Severely limited, percent of patients",12 months after treatment,(0.06%)
same,"SAQ Question 1-1 Slightly limited, number of patients",12 months after treatment,61
same,"SAQ Question 1-1 Slightly limited, percent of patients",12 months after treatment,(3.50%)
same,"SAQ Question 1-2 Mildly limited, number of patients",12 months after treatment,18
same,"SAQ Question 1-2 Mildly limited, percent of patients",12 months after treatment,(1.03%)
same,"SAQ Question 1-2 Moderately limited, number of patients",12 months after treatment,6
same,"SAQ Question 1-2 Moderately limited, percent of patients",12 months after treatment,(0.34%)
same,"SAQ Question 1-2 Not limited, number of patients",12 months after treatment,1647
same,"SAQ Question 1-2 Not limited, percent of patients",12 months after treatment,(94.44%)
same,"SAQ Question 1-2 Other reasons, number of patients",12 months after treatment,6
same,"SAQ Question 1-2 Other reasons, percent of patients",12 months after treatment,(0.34%)
same,"SAQ Question 1-2 Severely limited, number of patients",12 months after treatment,0
same,"SAQ Question 1-2 Severely limited, percent of patients",12 months after treatment,(0.00%)
same,"SAQ Question 1-2 Slightly limited, number of patients",12 months after treatment,67
same,"SAQ Question 1-2 Slightly limited, percent of patients",12 months after treatment,(3.84%)
same,"SAQ Question 1-6: Mildly limited, patients (%)",12 months after treatment,(14.93%)
same,"SAQ Question 1-6: Moderately limited, patients (%)",12 months after treatment,(9.70%)
same,"SAQ Question 1-6: Not limited, patients (%)",12 months after treatment,(40.47%)
same,"SAQ Question 1-6: Other reasons, patients (%)",12 months after treatment,(0.86%)
same,"SAQ Question 1-6: Severely limited, patients (%)",12 months after treatment,(2.58%)
same,"SAQ Question 1-6: Slightly limited, patients (%)",12 months after treatment,(31.46%)
same,"SAQ Question 1-7: Mildly limited, patients (%)",12 months after treatment,(20.46%)
same,"SAQ Question 1-7: Moderately limited, patients (%)",12 months after treatment,(11.10%)
same,"SAQ Question 1-7: Not limited, patients (%)",12 months after treatment,(20.46%)
same,"SAQ Question 1-7: Other limited, patients (%)",12 months after treatment,(3.29%)
same,"SAQ Question 1-7: Severely limited, patients (%)",12 months after treatment,(12.95%)
same,"SAQ Question 1-7: Slightly limited, patients (%)",12 months after treatment,(31.73%)
same,"SAQ Question 1-8: Mildly limited, patients (%)",12 months after treatment,(24.72%)
same,"SAQ Question 1-8: Moderately limited, patients (%)",12 months after treatment,(13.35%)
same,"SAQ Question 1-8: Not limited, patients (%)",12 months after treatment,(13.64%)
same,"SAQ Question 1-8: Other reasons, patients (%)",12 months after treatment,(3.95%)
same,"SAQ Question 1-8: Severely limited, patients (%)",12 months after treatment,(16.89%)
same,"SAQ Question 1-8: Slightly limited, patients (%)",12 months after treatment,(27.45%)
same,"8th question: Dissatisfied, patients (%)",Baseline,(0.92%)
same,"8th question: Highly satisfied, patients (%)",Baseline,(15.62%)
same,"8th question: Mostly dissatisfied, patients (%)",Baseline,(6.55%)
same,"8th question: Mostly satisfied, patients (%)",Baseline,(46.01%)
same,"8th question: Partly satisfied, patients (%)",Baseline,(30.90%)
same,"9th question: Few, patients (%)",Baseline,(21.02%)
same,"9th question: Mild, patients (%)",Baseline,(36.70%)
same,"9th question: Moderate, patients (%)",Baseline,(26.88%)
same,"9th question: Severe, patients (%)",Baseline,(3.62%)
same,"9th question: Uneffective, patients (%)",Baseline,(11.77%)
same,"10th question: Dissatisfied, patients (%)",Baseline,(25.90%)
same,"10th question: Highly satisfied, patients (%)",Baseline,(2.30%)
same,"10th question: Mostly dissatisfied, patients (%)",Baseline,(23.72%)

# — patent US9211310B2, “Use of a Chinese medicine composition in preparing medicaments for treating secondary prevention of myocardial infarction” (TASLY PHARMACEUTICAL GROUP CO., LTD, priority 2010, dated 2015)
